Measurements from US7528132B2, “Kinase inhibitors” (Schering Corporation, priority 2005, dated 2009).
Where two headings read alike, the source gives them in different places.

Biological target: T1, Akt1 (Homo sapiens, UniProt P31749)
T1 construct: made in house; host or cells: Sf9 insect cells (baculovirus, pBlueBacHis2B)
Assay: Akt1 kinase assay (33P phosphorylation of biotinylated peptide, Flash plates)
Type: biochemical
How it was run: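 Sf9-expressed, Ni-NTA-purified N-terminal His6/Xpress-tagged human Akt1 (okadaic acid-treated cells) phosphorylates biotinylated GSK3-derived peptide Bio-ahx-RPRAASF (5 μM solution) at room temperature in 50 mM Tris-HCl pH 7.5, 10 mM MgCl2, 1 mM TCEP, 0.1 mM vanadate, 0.02% BSA. ³³P-labelled peptide captured on streptavidin Flash plates; compounds added in 10% Me2SO.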

[1] = read-out: IC50 rating (AKT1 inhibition)

T1 sequence (P31749 whole entry): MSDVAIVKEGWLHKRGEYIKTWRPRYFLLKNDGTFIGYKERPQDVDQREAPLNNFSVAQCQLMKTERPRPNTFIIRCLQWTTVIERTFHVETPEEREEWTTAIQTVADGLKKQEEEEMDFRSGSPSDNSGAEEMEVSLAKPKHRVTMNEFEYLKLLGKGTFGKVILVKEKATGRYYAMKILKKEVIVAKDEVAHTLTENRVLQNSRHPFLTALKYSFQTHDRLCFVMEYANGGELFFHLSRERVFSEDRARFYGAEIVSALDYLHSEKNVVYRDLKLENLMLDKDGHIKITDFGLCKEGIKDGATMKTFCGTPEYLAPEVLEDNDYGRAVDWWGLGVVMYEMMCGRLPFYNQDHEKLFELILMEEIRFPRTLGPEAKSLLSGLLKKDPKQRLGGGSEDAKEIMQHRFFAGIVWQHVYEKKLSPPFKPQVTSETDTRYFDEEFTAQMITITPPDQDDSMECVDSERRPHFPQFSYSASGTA

Row | IC50 (read-out: IC50 (AKT1 inhibition)) [nM] | IC50 [1] [nM] | SMILES
1 | 1.36 | < 100 | Cc1n[nH]c2ccc(-c3nnc(CCc4ccccc4)c(N4CCN[C@@H](C(C)C)C4)n3)cc12 [Compound 93, 5-[(S)-3-isopropylpiperazin-1-yl]-3-(3-methylindazol-5-yl)-6-phenethyl-[1,2,4]triazine]
2 |  | < 100 | CCC[C@H]1CN(c2nc(-c3ccc4[nH]nc(C)c4c3)nnc2CCc2ccccc2)CCN1 [Compound 94, 3-(3-methylindazol-5-yl)-6-phenethyl-5-[(S)-3-propylpiperazin-1-yl]-[1,2,4]triazine]
